Laboratory results taken from PMC10892288, “Early Stage Preclinical Formulation Strategies to Alter the Pharmacokinetic Profile of Two Small Molecule Therapeutics” (Pharmaceuticals, 2024).
In brackets after ≈: the same amount, converted by molar mass. Like-named read-outs stand apart in the source and are kept apart here.

Tests used:
[1] = Mouse PK of G7883, PO in MCT vehicle; type: in vivo, female CD-1 mice; conditions: for AUC(0-t) / Cmax / Tmax / bioavailability / half-life: female; for AUC(0-t): CD-1, mouse, plasma, po, read-out: AUC0 to 8; for Cmax / Tmax / bioavailability / half-life: CD-1, plasma
Protocol: (§1) A total of 0.6% w/v Methylcellulose, 0.2% w/v Tween 80 in water (MCT) was prepared by slowly adding Methylcellulose (Methylocel A15 LV; CAS 9004-67-5, Part ID: 64605-500G-F 27.5-31.5% Methoxyl basis, Sigma-Aldrich, St. Louis, MO, USA) in small portions to prevent clumping while stirring into water at 70–80 °C. Once a homogeneous suspension formed, Tween 80 (Polysorbate 80; CAS#9005-65-6 (Polyoxyethylene (20) Sorbitan Monooleate; Tween 80) Part ID: PO138, Spectrum Chemical, New Brunswick, NJ, USA) was added and stirred until fully dissolved. Vehicle was filtered through 0.22 µm PES (Corning REF no. 431098) prior to adding to the compound for dosing. Respective compound was added based on the target concentration to the MCT vehicle and stirred at 35 °C until the power was well-dispersed. Formulations were homogenized through a polytron homogenizer and then sonicated in a water bath sonicator until a homogeneous suspension was achieved.
The pharmacokinetics of G7883 were determined in female CD-1 mice obtained from Charles River Laboratories (Hollister, CA, USA) with a body weight ranging from 20 to 25 g. The pharmacokinetics of G6893 were determined in female C57BL-6 mice (Lingchang/Vital River Laboratory Animal Co., Ltd., Shanghai/Beijing, China) with a body weight ranging from 20 to 35 g. Three mice were given an oral dose of G7883 formulated in 0.6% Methylcellulose, 0.2% Tween80 in water (MCT) at 25 mg/kg and 250 mg/kg with a dosing volume of 10 mL/kg. Food and water were available ad libitum to the animals. Three mice were given an oral dose of G6893 formulated in 0.6% methylcellulose; 0.2% Tween80 in water with pH adjusted to 2.5 at 30 mg/kg and a dose volume of 5 mL/kg. For both compounds, G7883 and G6893, 15 µL of blood was collected serially at 0. 25, 0.5, 1, 2, 4, 6, 8, and 24 h post-dose and diluted in 60 µL of 1.7 mg/mL potassium K2EDTA water. The frozen blood samples were stored at −70 °C or lower until analysis.
(§2) All plasma and cell media concentrations of G7883 and G6893 were determined using liquid chromatography–tandem mass spectrometry after protein precipitation with acetonitrile and injection of the supernatant onto the column (Waters ACQUITY UPLC BEH C18 1.7 μm, 2.1 × 50 mm for G7883 and G6893). The aqueous mobile phase was 0.1% formic acid, 2 mM ammonium formate in water/acetonitrile (v:v, 95:5), and the organic mobile phase was 0.1% formic acid, 2 mM ammonium formate in acetonitrile/water (v:v, 95:5). An AB Sciex API 4000 Triple Quad instrument was used for detecting G7883 and G6893 (Figure S2). The electrospray ionization source in both columns was operated in the positive ion and multiple reaction monitoring (MRM) detection modes. The MRM transitions for G7883 and G6893 were m/z 462.2 (Q1) and 253.10 (Q3) and m/z 454.2 (Q1) and 325.9 (Q3), respectively. The dynamic range of both assays was 0.50–50.0 ng/mL, and the total run time was 1.6 min. The lower limit of quantitation of the assay was […], and the dilution quality control concentration was set at 10 ng/mL with acceptance criteria for accuracy and precision of 25%.
All plasma and cell media concentrations of G7883 were determined using liquid chromatography–tandem mass spectrometry after protein precipitation with acetonitrile and injection of the supernatant onto the column (Phenomenex Kinetex XB-C18, 30 × 2.1 mm, 2.6 µm). The aqueous mobile phase was 10 mM of ammonium formate in water, and the organic mobile phase was 0.1% formic acid in acetonitrile. An AB Sciex API 5500 Triple Quad instrument was used for detecting G7883. The electrospray ionization source in both columns was operated in the positive ion and MRM detection modes. The MRM transitions for G7883 were m/z 462.2 (Q1) and 253.10 (Q3), respectively. The dynamic range of the assay was 0.50–50.0 ng/mL, and the total run time was 2 min. […]

[2] = Mouse PK of G7883, IP in MCT vehicle; type: in vivo, female NSG mice; conditions: for AUC(0-t) / Cmax / Tmax / half-life: female, NSG, plasma; for half-life: ip
Protocol: as §1
G7883 was dosed in three female NSG mice in-house with body weight ranging from 20 to 25 g. Three mice were given an IP dose of G7883 formulated in the MCT vehicle at 50 mpk and 150 mpk with a 5 mL/kg dosing volume. A total of 10 µL of blood was collected serially at 0.25, 0.5, 1, 3, 7, and 24 h post-dose and diluted in 40 µL of the potassium K2EDTA water. The frozen blood samples were stored at −70 °C or lower until analysis.
as §2
All plasma and cell media concentrations of G7883 were determined using liquid chromatography–tandem mass spectrometry after protein precipitation with acetonitrile and injection of the supernatant onto the column (Phenomenex Kinetex XB-C18, 30 × 2.1 mm, 2.6 µm). The aqueous mobile phase was 10 mM of ammonium formate in water, and the organic mobile phase was 0.1% formic acid in acetonitrile. An AB Sciex API 5500 Triple Quad instrument was used for detecting G7883. The electrospray ionization source in both columns was operated in the positive ion and MRM detection modes. The MRM transitions for G7883 were m/z 462.2 (Q1) and 253.10 (Q3), respectively. The dynamic range of the assay was 0.50–50.0 ng/mL, and the total run time was 2 min. The lower limit of quantitation of the assay was […], and the dilution quality control concentration was set at 10 ng/mL with acceptance criteria for accuracy and precision of 25%.

[3] = Solubility in phosphate buffer saline (PBS); type: physicochemical; conditions: phosphate buffered saline (PBS)
[4] = system: TEAD; design: method as in PMID 33679401; conditions: cellular assays; read-out: half-maximal inhibitory concentration (IC50) in cellular assays; cited from earlier work
[5] = 250 mg/kg, PO 250 mpk, mean ± SD
[6] = 50 mg/kg, IP 50 mpk, MCT vehicle, mean
[7] = 150 mg/kg, IP 150 mpk, MCT vehicle, mean

With `Cc1nccnc1-c1nn2c(=O)cc(-c3ccc(C4CCCCC4)cc3)[nH]c2c1C(=O)N1CC(CF)C1` [G7883, 5-(4-cyclohexylphenyl)-3-[3-(fluoromethyl)azetidine-1-carbonyl]-2-(3-methylpyrazin-2-yl)-4H-pyrazolo[1,5-a]pyrimidin-7-one] the “AUC0 to 8” value ([1]; PO 250 mpk, mean ± SD, 250 mg/kg) was 25.1 ± 5.43 µM·h, the AUC(0-t) ([1]; 25 mg/kg, PO 25 mpk, mean ± SD) was 1.99 ± 0.4 µM·h and the AUC(0-t) [1, 5] was 25 µM·h. The Cmax ([1]; 25 mg/kg, PO 25 mpk, mean ± SD) was 1.25 ± 0.82 µM, the Tmax ([1]; 25 mg/kg, PO 25 mpk, mean ± SD) was 30 min and the bioavailability ([1]; 25 mg/kg, PO 25 mpk, mean ± SD, read-out: F) was 6.18 ± 1.24%. The half-life ([1]; 25 mg/kg, PO 25 mpk, mean ± SD, read-out: t1/2 (converted)) was 130 ± 43.8 min, the Cmax [1, 5] was 6.85 ± 2.24 µM and the Tmax [1, 5] was 35 ± 22.9 min. For the same compound, the bioavailability ([1]; 250 mg/kg, PO 250 mpk, mean ± SD, read-out: F) was 7.8 ± 1.69%, the half-life ([1]; 250 mg/kg, PO 250 mpk, mean ± SD, read-out: t1/2 (converted)) was 164 ± 12.1 min and the bioavailability ([1]; PO, 25 to 250 mpk, read-out: bioavailability) was ~7%. The half-life ([1]; PO, 25 to 250 mpk, read-out: plasma half-life (converted)) was 120 min, the “increase of AUC coverage, IP versus PO” value ([2]; IP 150 mpk compared with PO 250 mpk) was “approximately 10 fold” and the t1/2 ([2]; IP 150 mpk, MCT vehicle, mean, 150 mg/kg) was 1.53 h. For the same compound, the AUC(0-t) [2, 6] was 31.2 µM·h, the Cmax [2, 6] was 23.9 µM and the Tmax [2, 6] was 1 h. For the same compound, the AUC(0-t) [2, 7] was 217 µM·h, the Cmax [2, 7] was 69.2 µM and the Tmax [2, 7] was 1 h. The half-life [2, 6] was 53.7 min, the half-life [2, 7] was 90 min and the solubility [3] was 89 µg/mL (≈ 178 µM). The IC50 [4] was 1400 nM.
